Results on eight compounds are retold here after patent EP4345091A1, “BENZOIC ACID DERIVATIVES, METHODS AND USES THEREOF” (priority 2022, dated 2024).

Series [1] can be described thus: Cytotoxicity assay in THP-1 cells. The settings on record: human, THP-1 cells, read-out: LC50 (the source's name). In kind it is cell-based, human. The source says: (§1) Cytotoxicity results were obtained through lethal concentration for 50% of the cell population, LC50. Table 6. Results obtained from cytotoxicity assays for the esters, represented by LD50 in µg/mL and comparison with MIC values, in µg/mL with toxicity/activity (T/A) index.
(§2) The T/A index quantitatively is the ratio between the lethal concentration (LC50) given by the minimum inhibitory concentration (MIC).

In series [2] the test system is human monocytic cell line THP-1 (ATCC56 TIB202). Nature of the series: Cytotoxicity assay in THP-1 cells. It is filed as cell-based. To be noted: toxicity/activity index: ratio LC50 (THP-1) / MIC (M. tuberculosis H37Rv).
Source text: as §1, §2

Series [3] can be described thus: Chemical stability in phosphate buffer pH 7.4.
The nature of series [4]: Stability in Mycobacterium smegmatis homogenate (enzymatic hydrolysis). To be noted: mycobacterium smegmatis homogenate, pH 7.4.
The test system of series [5] is Mycobacterium smegmatis homogenate. Described as above. The settings on record: Mycobacterium smegmatis homogenate, 37°C.
Series [6] concerns M. bovis BCG. Nature of the series: microbe, parasite or virus in culture. It is filed as cell-based. The settings on record: Mycobacterium tuberculosis variant bovis BCG.
Series [7] in a line: Stability in human plasma (enzymatic hydrolysis).
Series [8] relates to Mycobacterium tuberculosis H37Rv. Kind of series: MIC and MBC by broth microdilution against M. tuberculosis H37Rv. In kind it is cell-based, Mycobacterium tuberculosis H37Rv (ATCC 27294).
Series [9] has as its system M. smegmatis mc2 155. Nature of the series: MIC and MBC against M. smegmatis. It is filed as cell-based.
Series [10] has as its system Mycobacterium Bovis BCG infecting human macrophages THP-1. It is filed as cell-based. The settings on record: compound concentration 2 µg/ml.
In series [11] the test system is M. avium DSM 44156. Kind of series: MIC and MBC against M. avium. It is filed as cell-based.
For series [12] the following is noted: pH 7.4.
The mark [13] stands for this setting: lethal concentration for 50% of the cell population.
[14] abbreviates: Mycobacterium tuberculosis, H37RV, M. tuberculosis H37Rv, Table 3.
The mark [15] stands for this setting: Mycobacterium tuberculosis, H37RV, M. tuberculosis H37Rv, Table 4.
Where [16] appears, read: Mycobacterium tuberculosis, H37RV, M. tuberculosis H37Rv, Tables 3, 6 and 7.
Where [17] appears, read: Mycolicibacterium smegmatis, MC2155.
Setting [18] is: Mycobacterium tuberculosis, H37RV.

≈ marks a conversion by molar mass, not a printed value. Read-outs that look alike come from different tables or passages of the source.

A word on the half-life: it is how long it takes for the measured level to halve. A low value points to fast loss. `CCCCNC(=O)c1cc([N+](=O)[O-])cc([N+](=O)[O-])c1` [Compound 7a, N-butyl-3.5-dinitrobenzamide]: the CC50 in series [1] (setting [13]) turned out to be 26 µg/mL (≈ 97.3 µM). The T/A in series [2] is listed as 52. In addition, in [3], the “Degradation (%) 24h” value is 0%, the “Degradation (%) 48h” value is on record as 0%, the “Degradation (%) 72h” value is recorded as 0% and the “Degradation (%) 168h” value is 0%. Also, the “Degradation (%) 332h” value in [3] stood at 0%. Also, the half-life at 500 µM in series [4] is 22.9 ± 1.5 h. Besides, in [5], the “Degradation (%) 24h” value worked out at 52% and the “Degradation (%) 48h” value came out at 77%. Also, in series [6], the MBC was determined as 1 µg/mL (≈ 3.74 µM) and the MIC came to 0.5 µg/mL (≈ 1.87 µM). In series [7], the “Degradation (%) 24h” value worked out at 0%, the “Degradation (%) 48h” value is given as 0% and the “Degradation (%) 72h” value is 0%.
As for `CCCCCCNC(=O)c1cc([N+](=O)[O-])cc([N+](=O)[O-])c1` [Compound 7b, N-hexyl-3.5-dinitrobenzamide], in series [1] (setting [13]), the CC50 was found to be 361 µg/mL (≈ 1220 µM). Also, the T/A in [2] was determined as 11645. The half-life at 500 µM in series [4] was 82.5 ± 1.4 h. Besides, the “Degradation (%) 24h” value in series [5] is 18%. In addition, the “Degradation (%) 48h” value in series [5] was found to be 33%. Moreover, the MBC in series [8] (setting [14]) is 0.031 µg/mL (≈ 0.105 µM); in [8] (setting [15]) it was no more than 0.5 µg/mL; in series [9] (setting [17]) it was 1 µg/mL (≈ 3.39 µM); in series [6] it was 0.25 µg/mL (≈ 0.847 µM). Also, the MIC in [8] (setting [15]) is no more than 0.5 µg/mL; in series [8] (setting [16]), 0.031 µg/mL (≈ 0.105 µM); in series [9] (setting [17]) it was 1 µg/mL (≈ 3.39 µM); in series [6] it was 0.25 µg/mL (≈ 0.847 µM). The “CFU x10^4” value was 9.2 CFUs per mL in series [10] (Time 0 days), 4.58 CFUs per mL in [10] (Time 1 day), 0.40 CFUs per mL in series [10] (Time 3 days) and 0.05 CFUs per mL in [10] (Time 7 days).
For `CCCCCCCCNC(=O)c1cc([N+](=O)[O-])cc([N+](=O)[O-])c1` [Compound 7c, N-octyl-3.5-dinitrobenzamide], in [1] (setting [13]), the CC50 was 97 µg/mL (≈ 300 µM). Moreover, in series [2], the T/A is 6063. The “Degradation (%) 24h” value came out at 3% in series [5] and 0% in [12]. The “Degradation (%) 48h” value in series [5] is 5%; in series [12], 0%. Also, the MBC was 64 µg/mL (≈ 198 µM) in series [11] (Mycobacterium avium, DSM44156); 0.016 µg/mL (≈ 0.0495 µM) in [8] (setting [14]); no more than 0.062 µg/mL in [8] (setting [15]); 4 µg/mL (≈ 12.4 µM) in series [9] (setting [17]); 0.015 µg/mL (≈ 0.0464 µM) in series [6]. For the same compound, the MIC is 32 µg/mL (≈ 99 µM) in series [11] (Mycobacterium avium, DSM44156); no more than 0.062 µg/mL in series [8] (setting [15]); 0.016 µg/mL (≈ 0.0495 µM) in [8] (setting [16]); 0.25 µg/mL (≈ 0.773 µM) in series [9] (setting [17]); 0.015 µg/mL (≈ 0.0464 µM) in [6]. Moreover, the “Degradation (%) 72h” value in [12] came to 0%. The “Degradation (%) 168h” value in [12] amounted to 0%. Also, in series [12], the “Degradation (%) 332h” value was determined as 0%.
Turning to `CCCCCCCCCCNC(=O)c1cc([N+](=O)[O-])cc([N+](=O)[O-])c1` [Compound 7d, N-decyl-3.5-dinitrobenzamide], in series [1] (setting [13]), the CC50 is 53 µg/mL (≈ 151 µM). In addition, the T/A in series [2] was 841. In addition, in series [5], the “Degradation (%) 24h” value was found to be 1%. The “Degradation (%) 48h” value in [5] amounted to 2%. The MBC in [8] (setting [14]) was 0.063 µg/mL (≈ 0.179 µM); in series [8] (setting [15]) it was no more than 0.5 µg/mL; in series [9] (setting [17]), 1 µg/mL (≈ 2.85 µM); in [6], 0.062 µg/mL (≈ 0.176 µM). Moreover, the MIC in series [8] (setting [15]) was no more than 0.5 µg/mL; in series [8] (setting [16]), 0.063 µg/mL (≈ 0.179 µM); in [9] (setting [17]), 1 µg/mL (≈ 2.85 µM); in [6] it was 0.062 µg/mL (≈ 0.176 µM). Besides, the “CFU x10^4” value in series [10] (Time 0 days) is recorded as 9.2 CFUs per mL; in series [10] (Time 1 day), 7.33 CFUs per mL; in [10] (Time 3 days), 0.32 CFUs per mL; in series [10] (Time 7 days) it was 0.03 CFUs per mL.
In the case of `CCCCCCCCCCCCNC(=O)c1cc([N+](=O)[O-])cc([N+](=O)[O-])c1` [Compound 7e, N-dodecyl-3.5-dinitrobenzamide], the CC50 in series [1] (setting [13]) came to 72 µg/mL (≈ 190 µM). In addition, the T/A in [2] was 144. Also, the “Degradation (%) 24h” value in series [3] was determined as 0%; in series [5] it was 1%; in series [7] it was 0%. In addition, the “Degradation (%) 48h” value in series [3] is reported as 0%; in [5], 2%; in [7], 0%. The “Degradation (%) 72h” value in [3] and in series [7] was 0% each time. Moreover, the “Degradation (%) 168h” value in [3] turned out to be 0%. In addition, the “Degradation (%) 332h” value in [3] stood at 0%. In addition, the MBC in series [11] (Mycobacterium avium, DSM44156) is greater than 341 µg/mL; in series [8] (setting [14]) it was 0.5 µg/mL (≈ 1.32 µM); in [8] (setting [15]), 0.5 µg/mL (≈ 1.32 µM); in [9] (setting [17]), greater than 2.66 µg/mL; in [6], 0.166 µg/mL (≈ 0.437 µM). For the same compound, the MIC in series [11] (Mycobacterium avium, DSM44156) is greater than 341 µg/mL; in series [8] (setting [15]), 0.5 µg/mL (≈ 1.32 µM); in series [8] (setting [16]) it was 0.5 µg/mL (≈ 1.32 µM); in [9] (setting [17]), 0.66 µg/mL (≈ 1.74 µM); in series [6], 0.083 µg/mL (≈ 0.219 µM).
As to `CCCCCCCCCCCCCCNC(=O)c1cc([N+](=O)[O-])cc([N+](=O)[O-])c1` [Compound 7f, N-tetradecyl-3.5-dinitrobenzamide], in [1] (setting [13]), the CC50 is 330 µg/mL (≈ 810 µM). The T/A in series [2] was determined as 2640. Also, the “Degradation (%) 24h” value in [5] worked out at 1%. Further, the “Degradation (%) 48h” value in series [5] was 2%. Further, the MBC in series [8] (setting [14]) is 0.25 µg/mL (≈ 0.613 µM); in [8] (setting [15]) it was no more than 0.5 µg/mL; in series [9] (setting [17]), 4 µg/mL (≈ 9.82 µM); in [6], 0.25 µg/mL (≈ 0.613 µM). Also, the MIC is no more than 0.5 µg/mL in series [8] (setting [15]), 0.125 µg/mL (≈ 0.307 µM) in series [8] (setting [16]), 1 µg/mL (≈ 2.45 µM) in series [9] (setting [17]) and 0.25 µg/mL (≈ 0.613 µM) in [6]. In addition, the “CFU x10^4” value in series [10] (Time 0 days) is given as 9.2 CFUs per mL; in series [10] (Time 1 day) it was 14.16 CFUs per mL; in [10] (Time 3 days), 10.08 CFUs per mL; in series [10] (Time 7 days) it was 13.91 CFUs per mL.
Regarding `CCCCCCCCCCCCCCCCNC(=O)c1cc([N+](=O)[O-])cc([N+](=O)[O-])c1` [Compound 7g, N-hexadecyl-3.5-dinitrobenzamide], the CC50 in series [1] (n/d (no toxicity at maximum tested dose)) was greater than 512 µg/mL. Besides, in series [5], the “Degradation (%) 24h” value amounted to 0%. The “Degradation (%) 48h” value in [5] stood at 0%. Also, the MBC in series [8] (M. tuberculosis H37Rv, Table 4) was 2 µg/mL (≈ 4.59 µM); in series [8] (setting [18]) it was 2 µg/mL (≈ 4.59 µM); in series [9] (setting [17]) it was greater than 64 µg/mL; in series [6] it was 4 µg/mL (≈ 9.18 µM). The MIC in [8] (M. tuberculosis H37Rv, Table 4) turned out to be 2 µg/mL (≈ 4.59 µM); in series [8] (setting [18]), 2 µg/mL (≈ 4.59 µM); in [9] (setting [17]), 32 µg/mL (≈ 73.5 µM); in series [6], 2 µg/mL (≈ 4.59 µM).
For “N-butyl-3.5-dinitrobenzamide [Compound 7a]”, the MBC came to 512 µg/mL in series [11] (M. avium DSM 44156), 0.5 µg/mL in series [8] and 4 µg/mL in series [9] (M. smegmatis mc2 155). Moreover, the MIC in series [11] (M. avium DSM 44156) came to 64 µg/mL; in series [8], 0.5 µg/mL; in [9] (M. smegmatis mc2 155) it was 4 µg/mL.
